From publication PMC9916866 (International Journal of Molecular Sciences, 2023)

Columns and labels:
AT2 receptor = tested on: T1, AT2 receptor; format: binding, rat
T1 construct: expressed in transfected cells

AT1 receptor [1] = target: T2, AT1 receptor (Homo sapiens, UniProt P30556); assay: cell-based; format: cell-based; set-up: expressed in transfected cells; host or cells: HEK293T
T2 sequence (P30556 1-359): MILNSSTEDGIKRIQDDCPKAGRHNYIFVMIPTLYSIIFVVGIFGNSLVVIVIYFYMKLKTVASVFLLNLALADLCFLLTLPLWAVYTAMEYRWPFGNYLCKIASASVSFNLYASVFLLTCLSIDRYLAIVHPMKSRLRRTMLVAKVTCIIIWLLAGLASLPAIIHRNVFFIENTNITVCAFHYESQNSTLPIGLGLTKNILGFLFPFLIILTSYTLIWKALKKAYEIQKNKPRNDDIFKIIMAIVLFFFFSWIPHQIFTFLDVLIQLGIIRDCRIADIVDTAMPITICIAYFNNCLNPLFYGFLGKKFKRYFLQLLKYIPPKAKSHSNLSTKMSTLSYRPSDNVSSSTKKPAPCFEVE

AT1 receptor [2] = target: T2, AT1 receptor; format: cell-based; set-up: expressed in transfected cells; host or cells: HEK293T
AT1 receptor [3] = target: T2, AT1 receptor

SMILES	non-specific labelling of cells compared to total labelling with Cy5-AngII alone, AT2 (AT2 receptor) [%]	activation of Gαi3 by the substance alone (AT1 receptor [1])	inhibition of AngII-induced Gαi3 activation, 1 µM candesartan (AT1 receptor [1])	activation of GαoA pathway by the substance alone (AT1 receptor [2])	inhibition of AngII-induced GαoA activation, 1 µM candesartan (AT1 receptor [2])	increase in BRET signal (β-arrestin 2 recruitment) by the substance alone (AT1 receptor [3])	inhibition of AngII-induced β-arrestin 2 BRET signal, 1 µM candesartan (AT1 receptor [3])
CC[C@H](C)[C@H](NC(=O)[C@H](Cc1ccc(O)cc1)NC(=O)[C@@H](NC(=O)[C@H](CCCNC(=N)N)NC(=O)[C@@H](N)CC(=O)O)C(C)C)C(=O)N[C@@H](Cc1c[nH]cn1)C(=O)N1CCC[C@H]1C(=O)N[C@@H](Cc1ccccc1)C(=O)O [AngII, angiotensin II]	7	–	–	–	–	–	–
CCOc1nc2cccc(C(=O)O)c2n1Cc1ccc(-c2ccccc2-c2nnn[nH]2)cc1 [candesartan]	–	Neither candesartan, an AT1 receptor antagonist, nor the toxin alone could induce the activation of Gαi3	fully inhibited	Neither the toxin nor the candesartan alone can induce activation of this pathway	blocked	Neither the candesartan nor the toxin alone could induce an increase in the BRET signal	completely inhibits
